{"source": "patent US10842851B2", "about": "“Relaxin for treating patients afflicted of impaired glucose tolerance” (Immundiagnostik AG, priority 2012, dated 2020)", "key": {"[1]": {"tested_on": "patients having type II diabetes or impaired glucose tolerance", "test": "HOMA-index in human patients under i.v. H2 relaxin", "assay_type": "in vivo", "conditions": "i.v. over 16 hrs", "source_text": "In a study approved by the local ethical committee (Charité, Berlin, Germany) twelve patients (n=12) having type II diabetes or impaired glucose tolerance received intravenous synthetic H2 relaxin over a period of 16 hrs followed by a 24-hr follow-up. The anti-diabetic treatment of those patients was not varied. The improved HOMA-2 model used was in the present example because it reflects better human physiology. A HOMA of >2 indicates a potential insulin resistance; a HOMA of >2.5 beginning insulin resistance and a HOMA>5.0 is an average value of insulin resistance in untreated patients with manifest type-2 diabetes.\nOf those twelve patients in this study two patients received sequential treatment for 8 hours each with dosages equivalent to 10 and 30 μg/kg of subject body weight per day, 6 patients received sequential treatment with 240 and 480 μg/kg of subject body weight per day, and another 4 patients received a constant infusion of 960 μg/kg of subject body weight per day. This was completed by follow-up determinations of glucose and insulin levels in serum 24 hours post termination of the i.v. relaxin administration."}, "[2]": {"tested_on": "Zucker Diabetic Fatty rats", "test": "HOMA-index in ZDF rats under sc relaxin", "assay_type": "in vivo, rat", "conditions": "10-week old male ZDF rats, sc 500 μg/kg per day, within the 48-hour period", "source_text": "The homeostatic model assessment (HOMA=Insulin (μU/mi)×Glucose (mmol/l)/22.5) allows a quantification of insulin resistance and beta-cell function on the basis of mathematical equations describing glucose regulation as a feedback loop (see Matthews D R at al. Diabetologia 1985; 28(7): 412-9); Turner R C et al, Metabolism 1985; 28 (11): 1086-96). In order to assess the effects of relaxin on a diabetic metabolism we determined the HOMA of 10-week old male Zucker Diabetic Fatty rats (#25) pre-, during and post subcutanous administration of porcine relaxin (500 μg/kg rat per day). Thus, we determined the glucose and insulin levels in serum of 25 ZDF rats prior and 48 hours after sc administration of porcine relaxin. This was completed by follow-up determinations of glucose and insulin concentrations in serum 48 hours post the termination of the administration of porcine relaxin."}, "[3]": {"tested_on": "rat insulinoma cells (INS-1 cells)", "test": "Insulin secretion of INS-1 cells under sustained glucose concentrations (rat insulin ELISA)", "assay_type": "cell-based", "method": "In a further study we examined whether porcine relaxin has any effect on insulin expression and/or secretory capacity of pancreatic beta-cells. 2.5×10^5 rat insulinoma cells (INS-1 cells; see Mergler S et al, in Cellular Signalling (2008), doi: 10.1016/j.cellsig.2008.08.015) were plated in a 24-well plate and grown for three days in […] medium with supplements (Moore G. E. et. al., Culture of Normal Human Leukoctyes.” JAMA, v. 199, 519-524 (1967). On the day of the experiment, the medium was removed, and the INS-1 cells were washed three times and then preincubated for 30 min in KRB (Krebs-Ringer buffer: 115 mM NaCl, 5.9 mM KCl, 1.2 mM MgCl2, 1.2 mM NaH2PO4, 1.2 mM Na2PO4, 2.5 mM CaCl2, 25 mM NaHCO3, pH 7.4) comprising 0.5% BSA and 3.3 mM glucose. Cells were washed again with phosphate buffered saline (PBS: 137 mM NaCl, 2.7 mM KCl, 12 mM phosphate, pH 7.4) and incubated with different physiological and pathological glucose concentrations (2.8, 5.6, 11.2, 16.7, 33.2 mmol/L) for 48 hrs. After another washing, the amounts of insulin secreted by the INS-1 cells into the supernatant over another 48 hrs under the very same glucose conditions were determined using a rat insulin ELISA kit (units: ng/dl) (Immundiagnostik AG, Bensheim, Del.—Article No. KA80INSRT1). […]"}, "[4]": {"test": "Effect of relaxin on glucose levels in blood", "conditions": "in vivo"}, "[5]": {"conditions": "cited from earlier work"}, "[6]": {"conditions": "over the entire dose range, previous pilot study (Dschietzig et al. 2009); cited from earlier work"}}}
{"substance": "human relaxin-2 (H2 relaxin)", "values": [{"measurement": "homeostatic model assessment (HOMA) in each diabetic patient (FIG. 2A)", "setting": "[1]; 10 to 960 μg/kg per day, diabetic patients", "value": "improved"}, {"measurement": "homeostatic model assessment (HOMA) in non-diabetic subjects", "setting": "[1]; subjects having an initial HOMA of less than 2.0", "value": "no or little impact"}]}
{"substance": "porcine relaxin-1 [porcine RLX]", "values": [{"measurement": "HOMA value of each animal (FIG. 1A)", "setting": "[2]", "value": "reduced HOMA value"}]}
{"substance": "relaxin", "values": [{"measurement": "insulin secretion (as determined in cell supernatants)", "setting": "[3]; 10 nM porcine relaxin-1, baseline and high-glucose conditions, secretion period of 48 hours, INS-1 cells", "value": "increased insulin secretion"}, {"measurement": "high glucose-induced down-regulation of insulin expression and/or secretory capacity", "setting": "[3]; 10 nmol/L porcine relaxin-1, cultured rat INS-1 cells, n=6, P<0.05 vs. control", "value": "efficient in preventing"}, {"measurement": "direct effect on glucose levels in blood", "setting": "[4]", "value": "not found any direct effect"}, {"measurement": "half-life in vivo", "setting": "[5]", "value": "about two"}, {"measurement": "clinically adverse effects", "setting": "[6]", "value": "no clinically adverse effects were observed"}]}
